# Results reported in BindingDB's records for patent US12565497 (Hoffmann-La Roche, 2026).
# Biological target: S-adenosylmethionine synthase isoform type-2 (Homo sapiens, UniProt P31153)
# Test: Determination of Mat2A Activity
# Description: Measurement of Mat2A inhibition is performed in 384 well format absorbance-based assay. Recombinant human Mat2a (12.5 nM) and serial diluted compounds in DMSO (range of concentrations from 10 μM to 508 pM) or controls (DMSO) are incubated for 15 minutes at room temperature (RT) in assay buffer containing 50 mM HEPES pH 7.5, 50 mM KCl, 50 mM MgCl2, 0.01%Tween 20 and 10 mM DTT. The reaction is initiated by the addition of the combined substrates ATP and Methionine, each at a final concentration of 100 μM. Final assay condition are 12.5 nM Mat2A, 100 μM ATP and Methionine Substrates and 2% DMSO. After 120 minutes of incubation at RT, the reaction is stopped by the addition of Biomol Green. The absorbance signal is measured at λ=635 nm with a multiplate reader (BMG Pherastar reader or equivalent) after 30 min of equilibration at RT.
# S-adenosylmethionine synthase isoform type-2, sequence (P31153 whole entry, canonical isoform): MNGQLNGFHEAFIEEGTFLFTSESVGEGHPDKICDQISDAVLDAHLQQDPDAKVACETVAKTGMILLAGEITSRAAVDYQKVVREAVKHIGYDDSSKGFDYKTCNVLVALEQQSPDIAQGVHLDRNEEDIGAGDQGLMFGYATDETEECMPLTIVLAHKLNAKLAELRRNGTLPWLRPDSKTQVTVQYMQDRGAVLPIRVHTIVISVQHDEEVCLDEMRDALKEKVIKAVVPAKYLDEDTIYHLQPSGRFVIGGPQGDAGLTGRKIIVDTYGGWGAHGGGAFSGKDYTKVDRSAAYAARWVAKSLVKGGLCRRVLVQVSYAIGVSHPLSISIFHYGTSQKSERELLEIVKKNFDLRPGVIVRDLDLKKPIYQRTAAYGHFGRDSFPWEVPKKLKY
row,SMILES,IC50 [nM]
1,"Cc1cc(-c2c(S(C)(=N)=O)ccc3[nH]nc(C4CC4)c23)ccc1S(C)(=O)=O (configuration not stated) [US12565497, Example 112]",90
2,"Cc1cc(-c2c(S(C)(=O)=O)ccc3[nH]nc(OC(F)F)c23)ccc1S(C)(=O)=O [US12565497, Example 49]",< 13
3,"Cc1cc(-c2c(C(=O)NC3COC3)ncc3[nH]nc(C4CC4)c23)ccc1S(C)(=O)=O [US12565497, Example 84]",< 13
4,"Cc1cc(-c2c(S(C)(=O)=O)ccc3[nH]nc(OC(F)F)c23)ccc1S(=O)(=O)C(F)F [US12565497, Example 117]",< 13
5,"CCS(=O)(=O)c1ccc(-c2nccc3[nH]nc(C4CC4)c23)cc1C [US12565497, Example 20]",15

# Further lines, results first:
row,IC50 [nM],SMILES
1,< 13,"COCCNC(=O)c1ncc2[nH]nc(OC(F)F)c2c1-c1ccc(S(=O)(=O)C(F)F)c(C)c1 [US12565497, Example 109]"
2,< 13,"Cc1cc(-c2c(C(=O)NC3CC3)ncc3[nH]nc(C4CC4)c23)ccc1S(C)(=O)=O [US12565497, Example 86]"
